# Measurements from patent US10988477B2 (Merck Patent GmbH, priority 2018, dated 2021).
# Read-outs that look alike come from different tables or passages of the source.
# Columns and labels:
# GCN2 kinase = GCN2 kinase (Homo sapiens, UniProt Q9P2K8); experiment: GCN2 enzyme inhibition assay (Transcreener ADP2 fluorescence polarization); format: biochemical; settings: 280 μM ATP
# Outline: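 Inhibition of 4 nM GCN2 was measured with compound up to 8 μM final, ATP 280 μM and (RS)7 peptide 200 μM over a 1 h, 25 °C reaction. ADP FP readout; IC50 and Ki(app) calculated from percent inhibition.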
# [1] = target: intracellular GCN2 (phosphorylation of the GCN2 substrate eIF2α) (Homo sapiens, UniProt Q9P2K8); experiment: GCN2 cellular inhibition assay (AlphaScreen SureFire P-eIF2α Ser51, borrelidin-treated U2OS cells); format: cell-based
# Outline: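 U2OS cells adhered overnight, then treated with compounds (4-fold serial dilutions from 40 μM final) plus borrelidin 10 μM final for 1 h at 37 °C. Lysate eIF2α Ser51 phosphorylation measured by AlphaScreen SureFire. Percent inhibition calculated relative to borrelidin-only wells.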
# [2] = compounds of Formula III, 4 nM GCN2 kinase
# [3] = compounds of Formula III, U2OS cells, 10 μM borrelidin, 1 h, read-out: GCN2 Biomarker (IC50)
# [4] = compounds of Formula II, 4 nM GCN2 kinase
# [5] = compounds of Formula II, biomarker assay, phosphorylated eIF2α Ser51 in borrelidin-treated U2OS cells
# [6] = Enzyme activity for compounds of Formula IV, Ki(app), 25° C.
# [7] = compounds of Formula IV, biomarker assay, phosphorylated eIF2α Ser51 in borrelidin-treated U2OS cells
# GCN2 kinase, sequence (Q9P2K8 whole entry): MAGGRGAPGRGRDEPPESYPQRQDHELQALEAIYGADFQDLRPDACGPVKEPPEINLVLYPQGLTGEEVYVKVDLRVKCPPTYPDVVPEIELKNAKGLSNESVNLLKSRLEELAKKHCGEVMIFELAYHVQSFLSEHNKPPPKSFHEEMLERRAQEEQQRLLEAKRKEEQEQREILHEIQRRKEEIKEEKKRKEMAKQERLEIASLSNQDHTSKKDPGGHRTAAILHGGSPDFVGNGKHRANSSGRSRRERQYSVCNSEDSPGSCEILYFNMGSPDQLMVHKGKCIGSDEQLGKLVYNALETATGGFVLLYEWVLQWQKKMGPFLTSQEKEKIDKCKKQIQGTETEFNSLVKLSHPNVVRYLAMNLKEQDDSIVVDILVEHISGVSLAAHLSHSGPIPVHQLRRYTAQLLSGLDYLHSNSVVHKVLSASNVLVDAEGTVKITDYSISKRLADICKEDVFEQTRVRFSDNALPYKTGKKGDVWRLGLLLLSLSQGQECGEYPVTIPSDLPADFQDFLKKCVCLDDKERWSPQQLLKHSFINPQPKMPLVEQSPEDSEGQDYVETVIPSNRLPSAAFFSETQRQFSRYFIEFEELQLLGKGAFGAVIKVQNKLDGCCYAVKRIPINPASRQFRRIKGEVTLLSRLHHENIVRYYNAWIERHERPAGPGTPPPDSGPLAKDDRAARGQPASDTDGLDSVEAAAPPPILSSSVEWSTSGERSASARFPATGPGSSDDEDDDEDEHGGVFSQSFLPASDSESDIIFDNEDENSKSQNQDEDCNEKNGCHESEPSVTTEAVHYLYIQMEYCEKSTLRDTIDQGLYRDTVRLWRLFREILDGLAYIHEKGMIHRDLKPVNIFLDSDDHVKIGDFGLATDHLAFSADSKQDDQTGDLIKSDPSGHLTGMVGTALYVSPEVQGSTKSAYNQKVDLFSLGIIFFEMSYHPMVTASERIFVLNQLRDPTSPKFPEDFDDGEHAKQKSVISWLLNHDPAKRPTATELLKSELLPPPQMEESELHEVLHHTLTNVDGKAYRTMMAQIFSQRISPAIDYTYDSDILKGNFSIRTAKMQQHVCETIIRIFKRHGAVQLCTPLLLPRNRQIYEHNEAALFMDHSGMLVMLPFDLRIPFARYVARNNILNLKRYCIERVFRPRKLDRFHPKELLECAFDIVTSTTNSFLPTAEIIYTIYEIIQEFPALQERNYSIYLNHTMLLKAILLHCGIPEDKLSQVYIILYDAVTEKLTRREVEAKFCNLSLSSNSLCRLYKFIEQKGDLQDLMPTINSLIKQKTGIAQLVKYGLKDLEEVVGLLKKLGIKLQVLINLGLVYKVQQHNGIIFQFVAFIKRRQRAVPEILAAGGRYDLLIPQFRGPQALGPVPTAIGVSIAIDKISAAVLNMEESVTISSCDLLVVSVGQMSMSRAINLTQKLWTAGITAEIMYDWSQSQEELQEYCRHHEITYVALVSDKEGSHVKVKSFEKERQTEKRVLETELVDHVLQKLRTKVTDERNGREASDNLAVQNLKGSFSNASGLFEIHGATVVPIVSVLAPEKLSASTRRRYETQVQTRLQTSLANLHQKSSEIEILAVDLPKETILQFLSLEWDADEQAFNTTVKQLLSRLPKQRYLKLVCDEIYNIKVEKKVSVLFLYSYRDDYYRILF
# intracellular GCN2 (phosphorylation of the GCN2 substrate eIF2α), sequence (Q9P2K8 whole entry): as above
SMILES,Ki (GCN2 kinase; [4]) [nM],"IC50 [1, 5] [nM]",Ki (GCN2 kinase; [6]) [nM],"IC50 [1, 7] [nM]",further results
"CS(=O)(=O)NC[C@H]1CN(c2cc(-c3cnn4cc(F)c(C(F)F)nc34)ncn2)CCO1 [III-5, N-[[(2R)-4-[6-[5-(Difluoromethyl)-6-fluoro-pyrazolo[1,5-a]pyrimidin-3-yl]pyrimidin-4-yl]morpholin-2-yl]methyl]methanesulfonamide]",–,–,–,–,"Ki (GCN2 kinase; [2]): 10 to 1000 nM; IC50 [1, 3]: > 5000 nM"
"CC1(NS(C)(=O)=O)CCCN(c2cc(-c3cnc4ccc(C(F)F)nn34)ncn2)C1 (stereo not shown) [II-412, N-(1-(6-(6-(Difluoromethyl)imidazo[1,2-b]pyridazin-3-yl)pyrimidin-4-yl)-3-methylpiperidin-3-yl)methanesulfonamide]",10 to 1000,500 to 5000,–,–,–
"CS(=O)(=O)NCC1CCCN(c2cc(-c3cnn4ccc(C(F)F)nc34)ncn2)C1 (stereo not shown) [III-2, N-[[1-[6-[5-(Difluoromethyl)pyrazolo[1,5-a]pyrimidin-3-yl]pyrimidin-4-yl]-3-piperidyl]methyl]methanesulfonamide]",–,–,–,–,"Ki (GCN2 kinase; [2]): < 10 nM; IC50 [1, 3]: < 500 nM"
"CS(=O)(=O)N(O)CC1CN(c2cc(-c3cnc4ccc(C(F)F)nn34)ccn2)CCC1(F)F (stereo not shown) [II-131, N-((1-(4-(6-(Difluoromethyl)imidazo[1,2-b]pyridazin-3-yl)pyridin-2-yl)-4,4-difluoropiperidin-3-yl)methyl)-N-hydroxymethanesulfonamide]",< 10,< 500,–,–,–
"CC1CN(c2cc(-c3cnc4ccc(C(N)=O)nn34)ncn2)C(C)C(c2cn[nH]c2)N1 (stereo not shown) [II-728, 3-[6-[2,5-Dimethyl-3-(1H-pyrazol-4-yl)piperazin-1-yl]pyrimidin-4-yl]imidazo[1,2-b]pyridazine-6-carboxamide]",10 to 1000,> 5000,–,–,–
"CC1CC(C(=O)O)C(C)N(c2cc(-c3cnc4ccc(C(F)(F)F)nn34)ncn2)C1 (stereo not shown) [II-721, 2,5-Dimethyl-1-[6-[6-(trifluoromethyl)imidazo[1,2-b]pyridazin-3-yl]pyrimidin-4-yl]piperidine-3-carboxylic acid]",10 to 1000,500 to 5000,–,–,–
"CNc1ccc2ncc(-c3ccnc(N4CCCC(CNS(C)(=O)=O)C4)c3)n2n1 (stereo not shown) [II-179, N-((1-(4-(6-(Methylamino)imidazo[1,2-b]pyridazin-3-yl)pyridin-2-yl)piperidin-3-yl)methyl)methanesulfonamide]",10 to 1000,500 to 5000,–,–,–
"CC1C(NS(C)(=O)=O)CCCN1c1cc(-c2cnc3ccc(C(F)F)nn23)ncn1 (stereo not shown) [II-602, N-(1-(6-(6-(Difluoromethyl)imidazo[1,2-b]pyridazin-3-yl)pyrimidin-4-yl)-2-methylpiperidin-3-yl)methanesulfonamide]",< 10,< 500,–,–,–
"C[C@H]1[C@@H](N=S(C)(C)=O)CCCN1c1cc(-c2cnc3ccc(C(F)F)nn23)ncn1 (single isomer, unassigned) [II-593]",< 10,< 500,–,–,–
"CC1CC(CNS(C)(=O)=O)CN1c1cc(-c2cnc3ccc(C(F)F)nn23)ncn1 (stereo not shown) [II-8, N-((1-(6-(6-(Difluoromethyl)imidazo[1,2-b]pyridazin-3-yl)pyrimidin-4-yl)-5-methylpyrrolidin-3-yl)methyl)methanesulfonamide]",10 to 1000,500 to 5000,–,–,–
"O=S(=O)(N[C@H]1CCCN(c2cc(-c3cnc4ccc(C(F)F)nn34)ncn2)C1)C1COC1 [II-419, (S)—N-(1-(6-(6-(Difluoromethyl)imidazo[1,2-b]pyridazin-3-yl)pyrimidin-4-yl)piperidin-3-yl)oxetane-3-sulfonamide]",10 to 1000,500 to 5000,–,–,–
"CS(=O)(=O)NCC1CN(c2cc(-c3cnc4ccc(C(F)F)nn34)ncn2)CC2(CC2)O1 (stereo not shown) [II-383, N-((7-(6-(6-(Difluoromethyl)imidazo[1,2-b]pyridazin-3-yl)pyrimidin-4-yl)-4-oxa-7-azaspiro[2.5]octan-5-yl)methyl)methanesulfonamide]",10 to 1000,500 to 5000,–,–,–
"CN(C)C1CN(c2cc(-c3cnc4ccc(C(F)F)nn34)ncn2)CC(CNS(C)(=O)=O)C1(F)F (stereo not shown) [II-260, N-((1-(6-(6-(Difluoromethyl)imidazo[1,2-b]pyridazin-3-yl)pyrimidin-4-yl)-5-(dimethylamino)-4,4-difluoropiperidin-3-yl)methyl)methanesulfonamide]",10 to 1000,500 to 5000,–,–,–
"C[C@@H]1[C@@H](CNS(C)(=O)=O)N(C2CC2)CCN1c1cc(-c2cnc3ccc(C(F)F)nn23)ncn1 [II-770, N-(((2R,3R)-1-cyclopropyl-4-(6-(6-(difluoromethyl)imidazo[1,2-b]pyridazin-3-yl)pyrimidin-4-yl)-3-methylpiperazin-2-yl)methyl)methanesulfonamide]",–,500 to 5000,–,–,IC50 (GCN2 kinase; [4]): 10 to 1000 nM
"CC1(O)CCN(c2cc(-c3cnc4ccc(C(F)F)nn34)ncn2)CC1CNS(C)(=O)=O (stereo not shown) [II-240, N-((1-(6-(6-(Difluoromethyl)imidazo[1,2-b]pyridazin-3-yl)pyrimidin-4-yl)-4-hydroxy-4-methylpiperidin-3-yl)methyl)methanesulfonamide]",< 10,< 500,–,–,–
"CC1C(CS(C)(=N)=O)CCCN1c1cc(-c2cnc3ccc(C(F)F)nn23)ncn1 (stereo not shown) [II-488, ((1-(6-(6-(Difluoromethyl)imidazo[1,2-b]pyridazin-3-yl)pyrimidin-4-yl)-2-methylpiperidin-3-yl)methyl)(imino)(methyl)-λ^6-sulfanone]",10 to 1000,> 5000,–,–,–
"CS(=O)(=O)NC[C@@H]1CN(c2cc(-c3cnc4ccc(C(F)(F)F)nn34)ccn2)CCO1 [II-224, (S)—N-((4-(4-(6-(Trifluoromethyl)imidazo[1,2-b]pyridazin-3-yl)pyridin-2-yl)morpholin-2-yl)methyl)methanesulfonamide]",10 to 1000,500 to 5000,–,–,–

# Now from value to compound, other results behind:
Ki (GCN2 kinase; [4]) [nM],"IC50 [1, 5] [nM]",Ki (GCN2 kinase; [6]) [nM],"IC50 [1, 7] [nM]",SMILES,further results
–,–,< 10,< 500,"Brc1cn2c(-c3nccc(N4CCOC(c5cn[nH]c5)C4)n3)cnc2cn1 (stereo not shown) [IV-19, 4-(2-(6-Bromoimidazo[1,2-a]pyrazin-3-yl)pyrimidin-4-yl)-2-(1H-pyrazol-4-yl)morpholine]",–
–,–,< 10,500 to 5000,"CC1CN(c2cc(OCCO)nc(-c3cnc4cnc(C(F)(F)F)cn34)n2)C(C)C(c2cn[nH]c2)N1 (stereo not shown) [IV-640, 2-((6-(2,5-Dimethyl-3-(1H-pyrazol-4-yl)piperazin-1-yl)-2-(6-(trifluoromethyl)imidazo[1,2-a]pyrazin-3-yl)pyrimidin-4-yl)oxy)ethan-1-ol]",–
–,–,< 10,< 500,"CC1CN(c2ccnc(-c3cnc4cnc(C(F)(F)F)cn34)n2)C(C)C(c2cn[nH]c2)N1 (stereo not shown) [IV-222, 3-(4-(2,5-Dimethyl-3-(1H-pyrazol-4-yl)piperazin-1-yl)pyrimidin-2-yl)-6-(trifluoromethyl)imidazo[1,2-a]pyrazine]",–
–,–,< 10,< 500,"Fc1n[nH]cc1C1CCCN(c2ccnc(-c3cnc4cnc(C(F)(F)F)cn34)n2)C1 (single isomer, unassigned) [IV-492, 3-(4-(3-(3-Fluoro-1H-pyrazol-4-yl)piperidin-1-yl)pyrimidin-2-yl)-6-(trifluoromethyl)imidazo[1,2-a]pyrazine]",–
–,–,–,< 500,C[C@@H]1C[C@H](c2c[nH]nc2F)CN(c2ccnc(-c3cnc4cnc(C(F)(F)F)cn34)n2)C1 [IV-766],"IC50 (GCN2 kinase; compounds of Formula IV, 4 nM GCN2 kinase): 10 to 1000 nM"
–,–,100 to 1000,> 5000,"NC(=O)c1ccc(F)c(-c2ccnc(-c3cnc4cnc(C(F)F)cn34)n2)c1 [IV-176, 3-(2-(6-(Difluoromethyl)imidazo[1,2-a]pyrazin-3-yl)pyrimidin-4-yl)-4-fluorobenzamide]",–
–,–,100 to 1000,500 to 5000,"FC(F)(F)c1cn2c(-c3nccc(N4CCC(C5CCOC5)C4)n3)cnc2cn1 (stereo not shown) [IV-608, 3-(4-(3-(Tetrahydrofuran-3-yl)pyrrolidin-1-yl)pyrimidin-2-yl)-6-(trifluoromethyl)imidazo[1,2-a]pyrazine]",–
–,–,< 10,< 500,"CC1CN(c2ccnc(-c3cnc4cnc(Br)cn34)n2)C(C)C(c2cn[nH]c2)N1 (stereo not shown) [IV-279, 6-Bromo-3-(4-(2,5-dimethyl-3-(1H-pyrazol-4-yl)piperazin-1-yl)pyrimidin-2-yl)imidazo[1,2-a]pyrazine]",–
–,–,100 to 1000,> 5000,"C[C@H]1CCCN(c2ccnc(-c3cnc4cnc(C(F)F)cn34)n2)C1 [IV-137, (S)-6-(Difluoromethyl)-3-(4-(3-methylpiperidin-1-yl)pyrimidin-2-yl)imidazo[1,2-a]pyrazine]",–
–,–,10 to 100,> 5000,"FC(F)(F)c1cn2c(-c3nccc(N4CCCC(c5nccs5)C4)n3)cnc2cn1 (stereo not shown) [IV-675, 2-(1-(2-(6-(Trifluoromethyl)imidazo[1,2-a]pyrazin-3-yl)pyrimidin-4-yl)piperidin-3-yl)thiazole]",–
–,–,100 to 1000,> 5000,"FC(F)(F)c1cn2c(-c3nccc(N4CCOCC4)n3)cnc2cn1 [IV-426, 4-(2-(6-(Trifluoromethyl)imidazo[1,2-a]pyrazin-3-yl)pyrimidin-4-yl)morpholine]",–
–,–,10 to 100,500 to 5000,"CC1C(c2cn[nH]c2)OCCN1c1nccc(-c2cnc3cnc(C(F)(F)F)cn23)n1 (stereo not shown) [IV-418, 3-Methyl-2-(1H-pyrazol-4-yl)-4-(4-(6-(trifluoromethyl)imidazo[1,2-a]pyrazin-3-yl)pyrimidin-2-yl)morpholine]",–
